Series [1] in a line: Stability in acetate buffer pH 5.0 at room temperature via HPLC (UV). The format is physicochemical. Here is the method: (§1) Stability studies were conducted in PBS and acetate buffer utilizing high performance liquid chromatography for potential drug storage considerations. […]
(§2) All experiments were performed in duplicate and results are presented as the average of two experimental replicates.
(§3) 1.1 Aqueous Stability in PBS and Acetate Buffer via HPLC
(§4) Material and Instrumentation
(§5) HPLC grade acetonitrile (MeCN) […] HPLC grade water (H 2O), and formic acid (FA) were purchased from Fisher Scientific.
(§6) Puradisc 4 mm PTFE (0.45 μm) syringe filters from Cytiva. Gibco ® Dulbecco’s phosphate-buffered saline (DPBS 1X, no calcium, no magnesium, pH = 7.03) and acetate buffer (pH = 5.0, 10 mM) were purchased directly from Thermo Fisher Scientific and Cytiva, respectively.
(§7) Aqueous stability experiments were performed on an Agilent 1100 HPLC equipped with an Agilent G1315B diode array detector, an Agilent G1316A heated column compartment, and a Zorbax Eclipse XDB-C18 (4.6 x 150 mm, 5 μm) column.
(§8) Procedure for Aqueous Stability Experiments
(§9) Each sample was first weighed out in two separate 2.0 mL vials using an analytical balance.
(§10) Unless otherwise specified, the test compounds were then dissolved in the aqueous media (PBS or acetate buffer) at a standard concentration of 1 mg/mL. All mixtures were subsequently sonicated for approximately 30 sec. […]
(§11) min), precipitates observed in sample solutions were filtered with a PTFE syringe filter prior to analysis. Immediately after sample preparation, injection by the HPLC autosampler was performed, which was recorded as the initial time point (t = 0 min). Solutions were then kept in the autosampler at RT and reinjected at designated intervals without additional filtration or sample modification. Remaining prodrug was defined by the area under the curve (AUC) at 254 nm. Aqueous stability was ascertained by calculating the percentage of the parent compound remaining after each time point. Linear regression of the time (x-axis) vs. ln(%remaining) (y-axis) plot afforded the rate constant k (slope = -k). Pseudo first-order half-lives were then calculated by the following equation: t1/2 = 0.693/k.

A short description of series [2]: Aqueous solubility by visual inspection in acetate buffer (pH 5). The settings on record: sodium acetate buffer.
Description: For the solubility assessment, acetate buffer (pH 5) was selected as the media of choice to ensure prodrug stability during analysis.
High aqueous solubility was determined by visual inspection of 5 mg solid material in 0.5 mL
sodium acetate buffer solution. This media was selected to ensure stability of prodrugs during
dissolution in 50 mg/mL aqueous media.
Series [3] is described as follows: PBS stability assay at 37 °C via LC-MS/MS. The format is physicochemical. The settings on record: for half-life at 3 µM: phosphate-buffered saline (DPBS), pH 7.03, PBS; for PBS, 37 °C %rem. at 2h (Table S23) / half-life at 3 µM: 37 °C.
Series [4] in a line: Stability in PBS at room temperature via HPLC (UV). The format is physicochemical. The settings on record: phosphate-buffered saline (DPBS). The method, then: as §1, §2, §3, §4, §5, §6, §7, §8, §9, §10, §11
A short description of series [5]: Plasma stability assay at 37 °C via LC-MS/MS, human plasma.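 As to all read-outs here: prodrugs at 3 µM incubated in human plasma at 37 °C, intact prodrug quantified by LC-MS/MS over time, values are means of duplicate runs.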 The format is in vitro ADME. The settings on record: for half-life at 3 µM: human, plasma.
Description: To address this, prodrug stability was further evaluated in human plasma at 37 °C using liquid chromatography–tandem mass spectrometry (LC-MS/MS). For direct comparison, a parallel screen was conducted in PBS under identical conditions (Table ). To prevent premature degradation prior to LC-MS/MS analysis, acetonitrile containing formic acid was used as a quenching solution to acidify and stabilize the prodrugs in vials. […] This limitation in detection, along with the need for a more uniform and broadly applicable assessment across all compounds, prompted us to monitor the formation of the parent oxime as an alternative readout.
Stability experiments in human plasma and PBS were performed via liquid chromatography-tandem mass spectrometry (LC-MS/MS) to determine and compare rate of cleavage of progesterone prodrugs as well as selected allopregnanolone prodrugs (3 µM) when incubated at 37 °C. All experiments were performed in duplicate and results are presented as the average of two experimental replicates.
Where [6] appears, read: pH 5, acetate buffer pH 5.0, RT, 1 mg/mL, HPLC 254 nm, read-out: t1/2 in acetate buffer at RT (Tables S5-S8) (converted).
[7] abbreviates: pH 5, acetate buffer pH 5.0, rt, read-out: t½: pH 5.0, rt (Table S23) (converted).
[8] abbreviates: pH 5, aqueous buffer, thermodynamic from solid.
Where [9] appears, read: 3 µM, LC-MS/MS, read-out: t1/2 in PBS at 37 °C (Tables S14-S17) (converted).
[10] abbreviates: read-out: PBS, 37 °C t½ (Table S23) (converted).
Setting [11] is: pH 7.03, DPBS pH 7.03, RT, 1 mg/mL, HPLC 254 nm, read-out: t1/2 in PBS buffer at RT (Tables S1-S4) (converted).
Where [12] appears, read: pH 7.03, PBS, rt, read-out: t½: PBS, rt (Table S23) (converted).
The mark [13] stands for this setting: 3 µM, LC-MS/MS, read-out: t1/2 in human plasma at 37 °C (Tables S10-S13, S18) (converted).
Setting [14] is: read-out: Plasma, 37 °C t½ (Table S23) (converted).
[15] abbreviates: pH 5, acetate buffer pH 5.0, rt, HPLC (UV), read-out: Half-life (t½) pH 5.0 rt (converted).
Where [16] appears, read: LC-MS/MS, read-out: Half-life (t½) PBS 37°C (converted).
The mark [17] stands for this setting: pH 7.03, PBS, rt, HPLC (UV), read-out: Half-life (t½) PBS rt (converted).
Where [18] appears, read: LC-MS/MS, read-out: Half-life (t½) Plasma 37°C (converted).

Structures are written as SMILES.

Usually solubility stands for how much of the substance goes into solution per volume. A low value points to little dissolved substance.

In the case of `C/C(=N\OC(=O)N(C)C[C@H]1CCCN1)[C@H]1CC[C@H]2[C@@H]3CCC4=CC(=O)CC[C@]4(C)[C@H]3CC[C@]12C.O=C(O)C(F)(F)F` [20m], the half-life at 1 mg/mL in series [1] (setting [6]) is over 7 days; in series [1] (setting [7]) it was over 7 days; in series [4] (setting [11]), 369 ± 1.2 min; in series [4] (setting [12]), 369 min. Further, the solubility in series [2] (setting [8]) was over 10000 µg/mL. In addition, the “PBS, 37 °C %rem. at 2h (Table S23)” value in series [3] (PBS) is 11%. Besides, the half-life at 3 µM in series [3] (setting [9]) was 48 min; in series [3] (setting [10]) it was 48 min; in series [5] (setting [13]) it was 21 min; in series [5] (setting [14]), 21 min. Also, in series [5], the “Plasma, 37 °C %rem. at 2h (Table S23)” value is 2%.
On to `C/C(=N\OC(=O)N(C)C[C@@H]1CCN1)[C@H]1CC[C@H]2[C@@H]3CCC4=CC(=O)CC[C@]4(C)[C@H]3CC[C@]12C` [20o], for which the half-life at 1 mg/mL was over 7 days in series [1] (setting [6]); over 7 days in series [1] (setting [15]); over 7 days in series [1] (setting [7]); 378 ± 5.4 min in series [4] (setting [11]); 378 min in series [4] (setting [17]); 378 min in series [4] (setting [12]). Moreover, the solubility in series [2] (setting [8]) is over 10000 µg/mL. The “PBS, 37 °C %rem. at 2h (Table S23)” value in series [3] (PBS) amounted to 14%. Moreover, the half-life at 3 µM in series [3] (setting [9]) is 54 min; in series [3] (setting [16]), 54 min; in series [3] (setting [10]) it was 54 min; in series [5] (setting [13]) it was 17.4 min; in series [5] (setting [18]), 17.4 min; in series [5] (setting [14]), 17.4 min. Further, the “Plasma, 37 °C %rem. at 2h (Table S23)” value in series [5] came out at 1%.
As to `C/C(=N\OC(=O)N(C)C[C@@H]1CC2(CC2)CN1)[C@H]1CC[C@H]2[C@@H]3CCC4=CC(=O)CC[C@]4(C)[C@H]3CC[C@]12C` [20q], the half-life at 1 mg/mL in series [1] (setting [6]) was over 7 days; in series [1] (setting [15]), over 7 days; in series [1] (setting [7]), over 7 days; in series [4] (setting [11]), 261 min; in series [4] (setting [17]) it was 261 min; in series [4] (setting [12]) it was 261 min. This molecule also displayed a solubility in series [2] (setting [8]) of over 10000 µg/mL. Also, the “PBS, 37 °C %rem. at 2h (Table S23)” value in series [3] (PBS) turned out to be 5%. In addition, the half-life at 3 µM in series [3] (setting [9]) was 42 min; in series [3] (setting [16]), 42 min; in series [3] (setting [10]) it was 42 min; in series [5] (setting [13]), 39 min; in series [5] (setting [18]), 38.4 min; in series [5] (setting [14]), 39 min. For the same molecule, the “Plasma, 37 °C %rem. at 2h (Table S23)” value in series [5] stood at 15%.
Take `C/C(=N\OC(=O)N(C)C[C@@H]1C[C@H](N(C)C)CN1)[C@H]1CC[C@H]2[C@@H]3CCC4=CC(=O)CC[C@]4(C)[C@H]3CC[C@]12C` [20u]: the half-life at 1 mg/mL is 3 days in series [1] (setting [6]); 3 days in series [1] (setting [15]); 3 days in series [1] (setting [7]); 452 ± 78 min in series [4] (setting [11]); 452 min in series [4] (setting [17]); 452 min in series [4] (setting [12]). In series [2] (setting [8]), this molecule had a solubility of over 10000 µg/mL. The half-life at 3 µM in series [3] (setting [9]) was 64.8 min; in series [3] (setting [16]), 64.8 min; in series [3] (setting [10]) it was 64.8 min; in series [5] (setting [13]), 44.4 min; in series [5] (setting [18]) it was 43.8 min; in series [5] (setting [14]), 44.4 min. Also, the “Plasma, 37 °C %rem. at 2h (Table S23)” value in series [5] is 17%.
Consider `C/C(=N\OC(=O)N(CCN(C)C)CCN(C)C)[C@H]1CC[C@H]2[C@@H]3CCC4=CC(=O)CC[C@]4(C)[C@H]3CC[C@]12C` [20y], for which the half-life at 1 mg/mL in series [1] (pH 5, acetate buffer pH 5.0, RT, HPLC 254 nm, read-out: t1/2 in acetate buffer at RT) is 0.005507 ± 4.86e-05 days; in series [4] (setting [11]), 1.02 ± 0.12 min; in series [4] (setting [12]), 1.2 min. Besides, in series [2] (pH 5), the solubility is under 10000 µg/mL. In addition, in series [3] (PBS), the “Prodrug stability / self-immolation in buffer, in words” value is given as “hydrolytic instability”. Moreover, the “PBS, 37 °C %rem. at 2h (Table S23)” value in series [3] (PBS) is reported as 35%. Besides, the half-life at 3 µM in series [3] (setting [9]) is 112 min; in series [3] (setting [10]), 112 min; in series [5] (setting [13]), 533 min; in series [5] (setting [14]), 533 min. In addition, the “Plasma, 37 °C %rem. at 2h (Table S23)” value in series [5] is reported as 84%.
Regarding `C/C(=N\OC(=O)N(CCO)CCNCCO)[C@H]1CC[C@H]2[C@@H]3CCC4=CC(=O)CC[C@]4(C)[C@H]3CC[C@]12C.Cl` [20z], the half-life at 1 mg/mL in series [1] (setting [6]) was over 7 days; in series [1] (setting [7]), over 7 days; in series [4] (setting [11]), 1730 ± 190 min; in series [4] (setting [12]) it was 1730 min. Further, the solubility in series [2] (setting [8]) was over 10000 µg/mL. Further, the “PBS, 37 °C %rem. at 2h (Table S23)” value in series [3] (PBS) was 78%. Moreover, the half-life at 3 µM in series [3] (setting [9]) is 376 min; in series [3] (setting [10]), 376 min; in series [5] (setting [13]), 138 min; in series [5] (setting [14]), 138 min. Moreover, the “Plasma, 37 °C %rem. at 2h (Table S23)” value in series [5] came to 71%.
